Data set [1] has as its system human umbilical vein endothelial cells (HUVEC). In words: HUVEC proliferation assay (VEGF-stimulated, MTT). Format: cell-based. The following applies: Homo sapiens, read-out: HUVEC IC50. As to the method: This assay determines the ability of a test compound to inhibit the growth factor-stimulated proliferation of human umbilical vein endothelial cells (“HUVEC”). HUVEC cells (passage 3-4, Clonetics, Corp.) were thawed into EGM2 culture medium (Clonetics Corp) in T75 flasks. Fresh EGM2 medium was added to the flasks 24 hours later. Four or five days later, cells were exposed to another culture medium (F12K medium supplemented with 10% fetal bovine serum (FBS), 60 μg/ml endothelial cell growth supplement (ECGS), and 0.1 mg/ml heparin). Exponentially-growing HUVEC cells were used in experiments thereafter. Ten to twelve thousand HUVEC cells were plated in 96-well dishes in 100 μl of rich, culture medium (described above). The cells were allowed to attach for 24 hours in this medium. The medium was then removed by aspiration and 105 μl of starvation media (F12K+1% FBS) was added to each well. After 24 hours, 15 μl of test agent dissolved in 1% DMSO in starvation medium or this vehicle alone was added into each treatment well; the final DMSO concentration was 0.1%. One hour later, 30 μl of VEGF (30 ng/ml) in starvation media was added to all wells except those containing untreated controls; the final VEGF concentration was 6 ng/ml. Cellular proliferation was quantified 72 hours later by MTT dye reduction, at which time cells were exposed for 4 hours MTT (Promega Corp.). Dye reduction was stopped by addition of a stop solution (Promega Corp.) and absorbance at 595 λ was determined on a 96-well spectrophotometer plate reader.

In data set [2] the target is T1, unphosphorylated VEGF-R2Δ50 (FLVK) (Homo sapiens, UniProt P35968, DEL940-989/E990V).
T1 construct: VEGF-R2Δ50 contains residues 806-939 and 990-1171; made in house; host or cells: baculovirus/insect cells
T1 sequence (P35968 with tags, fused parts or gaps DEL940-989/E990V limits assumed): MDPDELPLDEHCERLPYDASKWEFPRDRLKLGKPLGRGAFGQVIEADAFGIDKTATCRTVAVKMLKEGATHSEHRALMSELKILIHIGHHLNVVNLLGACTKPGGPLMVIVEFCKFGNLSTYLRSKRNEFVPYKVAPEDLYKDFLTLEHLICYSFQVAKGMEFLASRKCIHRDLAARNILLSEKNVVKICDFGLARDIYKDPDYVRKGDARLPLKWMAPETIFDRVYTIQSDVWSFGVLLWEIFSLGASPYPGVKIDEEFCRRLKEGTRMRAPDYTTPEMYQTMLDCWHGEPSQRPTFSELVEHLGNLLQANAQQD
In words: VEGF-R2 coupled spectrophotometric assay, unphosphorylated construct (FLVK).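 Also: Baculovirus-expressed cytosolic kinase domain, ADP formation linked via pyruvate kinase and lactate dehydrogenase to NADH oxidation, read as falling absorbance at 340 nm.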 Format: biochemical.
Procedure: A construct (VEGF-R2Δ50) of the cytosolic domain of human vascular endothelial growth factor receptor 2 (VEGF-R2) lacking the 50 central residues of the 68 residues of the kinase insert domain was expressed in a baculovirus/insect cell system. […] Autophosphorylation of the purified construct was performed by incubation of the enzyme at a concentration of 4 μM in the presence of 3 mM ATP and 40 mM MgCl2 in 100 mM Hepes, pH 7.5, containing 5% glycerol and 5 mM DTT, at 4° C. for 2 h.
The production of ADP from ATP that accompanies phosphoryl transfer was coupled to oxidation of NADH using phosphoenolpyruvate (PEP) and a system having pyruvate kinase (PK) and lactic dehydrogenase (LDH). The oxidation of NADH was monitored by following the decrease of absorbance at 340 nm (e340=6.22 cm^−1 mM^−1) using a Beckman DU 650 spectrophotometer. Assay conditions for phosphorylated VEGF-R2Δ50 (indicated as FLVK-P in the tables below) were the following: 1 mM PEP; 250 μM NADH; 50 units of LDH/mL; 20 units of PK/mL; 5 mM DTT; 5.1 mM poly(E4Y1); 1 mM ATP; and 25 mM MgCl2 in 200 mM Hepes, pH 7.5. Assay conditions for unphosphorylated VEGF-R2Δ50 (indicated as FLVK in the tables) were the following: 1 mM PEP; 250 μM NADH; 50 units of LDH/mL; 20 units of PK/mL; 5 mM DTT; 20 mM poly(E4Y1); 3 mM ATP; and 60 mM MgCl2 and 2 mM MnCl2 in 200 mM Hepes, pH 7.5. Assays were initiated with 5 to 40 nM of enzyme. Ki values were determined by measuring enzyme activity in the presence of varying concentrations of test compounds. The data were analyzed using Enzyme Kinetic and Kaleidagraph software.

The target in data set [3] is T2, phosphorylated VEGF-R2Δ50 (FLVK-P) (Homo sapiens, UniProt P35968, DEL940-989/E990V).
T2 construct: VEGF-R2Δ50 contains residues 806-939 and 990-1171; made in house; host or cells: baculovirus/insect cells
T2 sequence (P35968 with tags, fused parts or gaps DEL940-989/E990V limits assumed): as above
In words: VEGF-R2 coupled spectrophotometric assay, phosphorylated construct (FLVK-P). It is filed as biochemical. The following applies: for inhibition at 0.05 µM: @ 50 nM, read-out: FLVK-P percent inhibition. The essentials: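 Continuous PK/LDH-coupled spectrophotometric read (NADH loss at 340 nm) with 5–40 nM enzyme in 200 mM Hepes pH 7.5. Phosphorylated construct run at 1 mM ATP, 25 mM MgCl2, 5.1 mM poly(E4Y1); unphosphorylated at 3 mM ATP, 60 mM MgCl2 plus 2 mM MnCl2, 20 mM poly(E4Y1). Ki values derived from varied inhibitor concentrations.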

Data set [4] concerns lung cancer cells (line MV522). In words: Cancer cell proliferation (MV522) assay (MTT). Format: cell-based. On the procedure: The protocol for assessing cellular proliferation in cancer cells is similar to that used for assessments in HUVEC cells. Two thousand lung cancer cells (line MV522, acquired from American Tissue Cultural Collection) were seeded in growth media (RPMI1640 medium supplemented with 2 mM glutamine and 10% FBS). Cells are allowed to attach for 1 day prior to addition of test agents and/or vehicles. Cells are treated simultaneously with the same test agents used in the HUVEC assay. Cellular proliferation is quantified by MTT dye reduction assay 72 hours after exposure to test agents. The total length of the assay is 4 days vs. 5 for HUVEC cells because MV522 cells are not exposed to starvation medium.

The target in data set [5] is T3, LCK tyrosine kinase (Homo sapiens, UniProt P06239, C224D/P223M).
T3 construct: starting from amino acid residue 223 to the end of the protein at residue 509; made in house; host or cells: insect cells
T3 sequence (P06239 223-509 P223M/C224D): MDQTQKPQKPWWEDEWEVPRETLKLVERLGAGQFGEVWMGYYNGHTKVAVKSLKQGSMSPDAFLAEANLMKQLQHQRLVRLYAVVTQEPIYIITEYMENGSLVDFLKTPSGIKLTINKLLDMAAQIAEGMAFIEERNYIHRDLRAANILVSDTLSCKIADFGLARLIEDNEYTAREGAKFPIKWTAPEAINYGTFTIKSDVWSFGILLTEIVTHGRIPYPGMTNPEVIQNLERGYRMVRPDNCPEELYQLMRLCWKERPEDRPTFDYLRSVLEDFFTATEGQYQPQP
In words: LCK spectrophotometric assay.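 Also: recombinant LCK kinase activity on poly(E4Y1), ADP formation coupled through PK/LDH to NADH oxidation, followed as absorbance loss at 340 nm.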 Format: biochemical. The conditions noted are these: @ 1 μM; read-out: LCK-P percent inhibition.

The mark [6] stands for this setting: VEGF-stimulated HUVEC proliferation.
Setting [7] is: unphosphorylated VEGF-R2 construct.

We go through 23 compounds from patent US6635641B2 (Agouron Pharmaceuticals, Inc., priority 2000, dated 2003).

Where a name gives a salt, the structure may show the parent alone. Read-outs that look alike come from different tables or passages of the source.

For `O=C(Nc1cccc(OCc2cccnc2)c1)N1CCCC1` [Example Y-1, 1-[3-(pyridin-3-ylmethoxy)phenylcarbamoyl]pyrrolidine], the melting point lay within 138 to 140 °C. Besides, in data set [1] (setting [6]), the IC50 is greater than 0.7 µM. In addition, the inhibition at 0.05 µM in data set [2] (@ 50 nM, read-out: FLVK percent inhibition) was found to be 6%.
As to `O=C(Nc1ccc2ncccc2c1)c1cccc(CSc2ncnc3[nH]ncc23)c1` [Example B-3, N-(Quinolin-6-yl)-3-[(1H-pyrazolo[3,4-d]pyrimidin-4-yl)sulfanylmethyl]benzamide], the melting point is 236 to 240 °C (dec.). Further, the affinity in data set [3], expressed as Ki, was 0.406 µM.
For `COc1cc(NC(=O)c2cccc(CSc3nc(NC(C)=O)n[nH]3)c2)cc(OC)c1OC` [Example C-3, N-(3,4,5-Trimethoxyphenyl)-3-[(5-acetylamino-2H-[1,2,4]triazol-3-yl)sulfanylmethyl]benzamide], the melting point lay within 196 to 201 °C.
Still for that read-out and setting: under `O=C(Nc1ccc(N2CCNCC2)c(C(F)(F)F)c1)c1ccc(F)c(OCc2cnc3ccccc3c2)c1` (as salt: hydrochloride) [Example R-17, 4-Fluoro-N-(4-piperazin-1-yl-3-trifluoromethyl-phenyl)-3-(quinolin-3-ylmethoxy)-benzamide] stands 76 to 78 °C.
Turning to `Cc1cc(C)c2cc(NC(=O)c3cccc(OCc4cncc5ccccc45)c3)ccc2n1` [Example R-5, N-(2,4-Dimethylquinolin-6-yl)-3-(isoquinolin-4-ylmethoxy)-benzamide], the IC50 is 0.089 µM in data set [1] (HUVEC) and 10 µM in data set [4] (MV522). Moreover, the Ki amounted to 0.0112 µM in data set [3] and 0.0017 µM in data set [2].
In turn, `Cc1ccc2cc(NC(=O)c3cccc(CSc4cnccn4)c3)ccc2n1` [Example A-6, N-(2-Methylquinolin-6-yl)-3-[(pyrazin-2-yl)sulfanylmethyl]benzamide] returned a melting point of 133 to 135 °C. In data set [3], the inhibitory constant (Ki) stood at 1.05 µM.
For `CC1(C)OC(C)(C)c2cc(NC(=O)c3cccc(OCc4cncc5ccccc45)c3)ccc21` [Example R-10, 3-(Isoquinolin-4-ylmethoxy)-N-(1,1,3,3-tetramethyl-1,3-dihydroisobenzofuran-5-yl)-benzamide], the IC50 in data set [1] (HUVEC) was 0.028 µM; in data set [4] (MV522), greater than 10 µM. For the same compound, the Ki was determined as 0.0121 µM in data set [3] and 0.0069 µM in data set [2]. The inhibition at 1 µM in data set [5] came out at 23%.
The compound `COc1cc(NC(=O)c2cccc(CSc3cnccn3)c2)cc(OC)c1OC` [Example A-1, N-(3,4,5-Trimethoxyphenyl)-3-[(pyrazin-2-yl)sulfanylmethyl]benzamide] displayed a melting point of 112 to 119 °C. In addition, affinity in data set [3] was put at a Ki of 0.785 µM.
For the compound `Cc1c(Br)cc(NC(=O)c2cccc(CSc3cnccn3)c2)cc1Br` [Example A-8, N-(3,5-Dibromo-4-methylphenyl)-3-[(pyrazin-2-yl)sulfanylmethyl]benzamide], the IC50 in data set [1] (HUVEC) was 0.74 µM; in data set [4] (MV522) it was greater than 10 µM. In addition, the Ki amounted to 0.00336 µM in data set [3] and 0.0019 µM in data set [2].
`Cc1ccc2cc(NC(=O)c3cccc(SCc4cnccn4)c3)ccc2n1` [Example D-2, N-(2-Methylquinolin-6-yl)-3-[(pyrazin-2-yl)methylsulfanyl]benzamide] yielded a melting point of 102 to 105 °C. In addition, the Ki in data set [3] was determined as 1.64 µM.
For the compound `COc1cc(NC(=O)c2cccc(CSc3nc(NC#N)n[nH]3)c2)cc(OC)c1OC` [Example C-1, 3-[(5-Cyanoamino-2H-[1,2,4]triazol-3-yl)sulfanylmethyl]-N-(3,4,5-trimethoxyphenyl)benzamide], the melting point was > 165 °C (dec.).
On to `Cc1cc(NC(=O)c2cccc(OCc3cnc(NNC(=O)OC(C)(C)C)c4ccccc34)c2)ccc1C(C)C` [Example P-1, N′-{4-[3-(4-isopropyl-3-methyl-phenylcarbamoyl)-phenoxymethyl]-isoquinolin-1-yl}-hydrazinecarboxylic acid tert-butyl ester], for which the melting point lay in the range of 125 to 129 °C. Also, in data set [3], the inhibition at 0.05 µM was 4%.
In the case of `COc1cc(NC(=O)c2cccc(CSc3ncnc4[nH]ncc34)c2)cc(C(F)(F)F)c1` [Example B-16, 3-[(1H-Pyrazolo[3,4-d]pyrimidin-4-yl)sulfanylmethyl]-N(3-trifluoromethyl-5-methoxyphenyl)-benzamide], the figures for the IC50 in data set [1] (HUVEC) and in data set [4] (MV522) were 0.37 µM and greater than 10 µM, respectively. For the same compound, the Ki in data set [3] was 0.015 µM. Also, in data set [5], the inhibition at 1 µM amounted to 9%.
`O=C(Nc1cccc(OCc2cccnc2)c1)N1CCOCC1` (as salt: salt) [Example Y-2, 4-[3-(pyridin-3-ylmethoxy)phenylcarbamoyl]morpholine] registered a melting point of 58 to 62 °C.
Compound `COc1cccc(/C=N/Nc2ncc(COc3cccc(C(=O)Nc4ccc(C(C)C)c(C)c4)c3)c3ccccc23)c1` [Example Q-1, N-(4-Isopropyl-3-methyl-phenyl)-3-{1-[N′-(3-methoxy-benzylidene)-hydrazino]-isoquinolin-4-ylmethoxy}-benzamide] displayed a melting point of 125 to 131 °C. Besides, the IC50 in data set [1] (HUVEC) was in the range of 0.1 to 0.3 µM. Further, the inhibition at 0.05 µM in data set [3] was 17%.
`CC(=O)Oc1ccc(C(=O)Nc2cccc(OCc3cccnc3)c2)cc1C(C)(C)C` [Example X-2, 4-Acetoxy-3-t-butyl-N-[3-(pyridin-3-ylmethoxy)phenyl]-benzamide] came in with a melting point of 58 to 62 °C. Further, the Ki in data set [2] (setting [7]) was found to be 0.0091 µM.
As to `Cc1cc(NC(=O)c2cccc(OCc3ccc(N)nc3)c2)ccc1C(C)C` [Example L-1, 3-(6-Aminopyridin-3-yl)methoxy-N-(4-Isopropyl-3-methyl-phenyl)-benzamide], the melting point lay within 78 to 81 °C.
Regarding `Cc1cc(NC(=O)c2cccc(CCc3cccnc3)c2)ccc1C(C)C` [Example U-2, N-(4-Isopropyl-3-methyl-phenyl)-3-(2-pyridin-3-yl-ethyl)-benzamide], the melting point was in the range of 143 to 144 °C. The IC50 in data set [1] (HUVEC) stood at 0.1 µM. The compound further gave a Ki in data set [3] of 0.0124 µM. The IC50 in data set [4] (MV522) was greater than 10 µM.
Regarding `CC(C)(C)c1cc(C(=O)Nc2cccc(OCc3cncc4ccccc34)c2)ccc1O` [Example X-5, 3-t-Butyl-4-hydroxy-N-[3-(isoquinolin-4-ylmethoxy)-phenyl]-benzamide], the results for the IC50 in data set [1] (setting [6]) and in data set [4] (MV522 lung cancer cells) were 0.029 µM and 3.7 µM, respectively. In data set [2] (setting [7]), this compound showed a Ki of 0.0013 µM.
In the case of `COC(=O)Nc1n[nH]c(SCc2cccc(C(=O)Nc3cc(OC)c(OC)c(OC)c3)c2)n1` [Example C-2, 3-[(5-(Methoxycarbonylamino)-2H-[1,2,4]triazol-3-yl)sulfanylmethyl]-N-(3,4,5-Trimethoxyphenyl)benzamide], the melting point was > 150 °C (dec.).
`O=C(Nc1cccc(OC(F)(F)F)c1)c1cccc(OCc2cncc3ccccc23)c1` [Example R-4, 3-(Isoquinolin-4-ylmethoxy)-N-(3-trifluoromethoxy-phenyl)-benzamide]: the IC50 in data set [1] (HUVEC) is 0.088 µM; in data set [4] (MV522), 9.9 µM. Moreover, the Ki in data set [3] stood at 0.00993 µM; in data set [2], 0.0024 µM. In addition, the inhibition at 1 µM in data set [5] turned out to be 28%.
For the compound `Cc1ccc2cc(NC(=O)c3cccc(OCc4ccc(N)nc4)c3)ccc2n1` [Example M-1, 3-(6-Aminopyridin-3-yl)methoxy-N-(2-methyl-quinolin-6-yl)-benzamide], the melting point was 189 to 192 °C. For the same compound, the Ki in data set [3] turned out to be 0.052 µM.
On to `O=C(Nc1ccc(N2CCNCC2)c(C(F)(F)F)c1)c1ccc(F)c(OCc2cncc3ccccc23)c1` (as salt: hydrochloride) [Example R-15, 4-Fluoro-N-(4-piperazin-1-yl-3-trifluoromethyl-phenyl)-3-(isoquinolin-4-ylmethoxy)-benzamide], for which the melting point lay in the range of 103 to 107 °C.

As a reminder, the melting point is the temperature of the solid-liquid transition. The IC50 is the midpoint of a concentration-inhibition curve. The inhibition is the percentage by which the read-out fell short of the control. A word on the Ki: it is the equilibrium dissociation constant of an inhibitor or competing ligand from its target. A lower Ki goes with higher affinity.
